Conditions: Liquid, Surface laser light scattering (SLLS)

C [methane] + CCCCCCCCCC
Conditions	interfacial tension [mN/m]
310.93 K, 36221 kPa	1.41e-05
310.94 K, 36221 kPa	1.93e-05
310.95 K, 36187 kPa	0.000902
310.96 K, 36198 kPa	0.000591
310.97 K, 34448 kPa	0.1569
310.97 K, 35150 kPa	0.08112
310.97 K, 35795 kPa	0.0247
310.97 K, 35857 kPa	0.01978
310.97 K, 35989 kPa	0.01122
310.97 K, 36092 kPa	0.00519
310.97 K, 36215 kPa	0.0001152
310.97 K, 36218 kPa	4.75e-05
310.98 K, 35498 kPa	0.04752
310.98 K, 35946 kPa	0.014
310.98 K, 36206 kPa	0.000326
310.99 K, 36151 kPa	0.002584
311 K, 36213 kPa	0.00015
311.12 K, 35885 kPa	0.01746

Reference: the NIST ThermoML archive (doi:10.1016/j.fluid.2018.12.016)
